pEC50: −log10 of the molar value. Read-outs that look alike come from different tables or passages of the source.
Legend:
A549 cells [1] = experiment: BOOM conversion: prodrug + metal resins in cell culture, cell viability, A549; assay type: cell-based, human; conditions: Pd0-resin 1 mg/mL, 100 μM Vorinostat prodrugs, 1 μM Doxorubicin prodrugs, 0.3 μM Panobinostat prodrug
Protocol: Cell viabilities for each prodrug provided as a combination with palladium is presented in FIG. 3 and gold is presented in FIG. 33 in the right of each set of two bars. […] Cells were incubated in tissue culture media containing 0.1% (v/v) DMSO and: Pd^0, Au, or Pd/Au-resins (1 mg/mL, negative control); 100 μM of each prodrug (negative control); and Pd^0, Au, or Pd/Au-resins (1 mg/mL)+100 μM of each prodrug (BOOM reaction assay). Cells incubated in 0.1% (v/v) DMSO in media were used as untreated cell control.
(§1) Following 5 days treatment, cells were incubated with PrestoBlue™ Cell Viability Reagent (Life Technologies) for 60-90 min. Fluorescence intensity values were related to the untreated cells (100% cell viability). […] Cells incubated in 0.1% (v/v) DMSO in media were used as untreated cell control.
(§2) Cell viabilities for each prodrug provided as a combination with palladium is presented in FIG. 7 in the right of each set of two bars. Data for prodrug in the absence of palladium catalyst is also provided (the left bar of each set of two bars) for comparison along with negative controls (from left to right: DMSO, Pd^0 and Doxorubicin). Cells were incubated in tissue culture media containing 0.1% (v/v) DMSO and: Pd^0-resins (1 mg/mL, negative control); 1 μM of each prodrug (negative control); and Pd^0-resins (1 mg/mL)+1 μM of each prodrug (BOOM reaction assay). Cells incubated in 0.1% (v/v) DMSO in media were used as untreated cell control.
(§3) Following 5 days treatment, cells were incubated with PrestoBlue™ Cell Viability Reagent (Life Technologies) for 90 min. Fluorescence intensity values were related to the untreated cells (100% cell viability). Data are provided in FIG. 8 for cells incubated in tissue culture media containing 0.1% (v/v) DMSO and: Pd^0-resins (1 mg/mL, negative control); 0.3-3 μM of Doxorubicin prodrug for A549 and DU145 cell lines, 0.1-1 μM of Doxorubicin prodrug for T98 cell line (negative control); 0.3-3 μM of Doxorubicin for A549 and DU145 cell lines, 0.1-1 μM of Doxorubicin for T98 cell line (positive control); and Pd^0-resin (1 mg/mL)+Doxorubicin prodrug (BOOM reaction assay). Cells incubated in 0.1% (v/v) DMSO in media were used as untreated cell control.
as §2, with “21” for “7”, “panobinostat).” for “Doxorubicin).”
(§4) The toxigenic effect as a result of in situ generation of parental drug in cell culture was determined by incubating all cells in tissue culture media containing 0.1% (v/v) DMSO and a) Pd^0, Au, or Pd/Au-resin (1 mg/mL for all cells tested, negative control); b) prodrug (negative control); or c) Pd^0, Au, or Pd/Au-resin (1 mg/mL for all cells)+prodrug (reaction assay). Cells incubated in 0.1% (v/v) DMSO in media was used as an untreated cell reference standard (100% viability). A PrestoBlue® cell viability assay as described above was carried out and fluorescent intensities compared to the untreated cell control.
(§5) A dose response study was performed for each cell line keeping the quantity of Pd^0 resin constant (0.8 mg/mL for U87G and 1 mg/mL for the rest of cell lines). All cells were plated in Dulbecco's Modified Eagle Media (DMEM) supplemented with serum (10% FBS) and L-glutamine (2 mM). […]

U87G cells = experiment: Prodrug safety dose-response cell viability (PrestoBlue), U87G; assay type: cell-based, human; conditions: U87G cells, 5 days, no catalyst, read-out: EC50 (cell viability)
Protocol: (§6) These cell lines were selected as these are primary malignancies against which the parental drugs are currently prescribed.
(§7) The toxicities of each active agent and prodrugs were compared by performing dose-response studies. […] Cell viability was analysed by fluoresce intensity (λex=540 nm; λem=590 nm) after 60-90 min incubation with PrestoBlue™ Reagent (Life Technologies).

T98 cells [2] = experiment: Prodrug safety dose-response cell viability (PrestoBlue), T98; assay type: cell-based; conditions: Homo sapiens, 120 h, 5 days, no catalyst
Protocol: as §6, §7

A549 cells [3] = experiment: Prodrug safety dose-response cell viability (PrestoBlue), A549; assay type: cell-based; conditions: Homo sapiens, 120 h, 5 days, no catalyst
Protocol: as §6, §7

T98 cells [4] = experiment: BOOM conversion: prodrug + Pd0-resins in cell culture, cell viability, T98; assay type: cell-based, human; conditions: Pd0-resin 1 mg/mL, 1 μM Doxorubicin prodrugs
Protocol: as §1, §2, §3, §4, §5

DU145 cells = experiment: BOOM conversion: prodrug + Pd0-resins in cell culture, cell viability, DU145; assay type: cell-based, human; conditions: Pd0-resin 1 mg/mL, 1 μM Doxorubicin prodrugs
Protocol: as §2
as §3, with “Cells incubated in 0.1% (v/v) DMSO in media were used as untreated cell control.” left out
(§8) The toxigenic effect as a result of in situ generation of parental drug in cell culture was determined by incubating all cells in tissue culture media containing 0.1% (v/v) DMSO and a) Pd^0, Au, or Pd/Au-resin (1 mg/mL for all cells tested, negative control); b) prodrug (negative control); or c) Pd^0, Au, or Pd/Au-resin (1 mg/mL for all cells)+prodrug (reaction assay). […]
(§9) A dose response study was performed for each cell line keeping the quantity of Pd^0 resin constant (0.8 mg/mL for U87G and 1 mg/mL for the rest of cell lines). […] Fluorescence intensity values (detected using a PerkinElmer EnVision 2101 multilabel reader with excitation filter at 540 nm and emissions filter at 590 nm) were determined relative to the untreated cell control.

MiaPaCa2 cells [5] = experiment: BOOM conversion: prodrug + Pd0-resins in cell culture, cell viability, MiaPaCa2; assay type: cell-based, human; conditions: Pd0-resin 1 mg/mL, 0.03 μM Gemcitabine prodrugs
Protocol: as §2, with “FIG. 10” for “FIG. 7”, “and Gemcitabine).” for “and Doxorubicin).”, “control); 0.03” for “control); 1”, “(1 mg/mL)+0.03” for “(1 mg/mL)+1”
Following 5 days treatment, cells were incubated with PrestoBlue™ Cell Viability Reagent (Life Technologies) for 90 min. Fluorescence intensity values were related to the untreated cells (100% cell viability). Data are provided in FIG. 11 for cells incubated in tissue culture media containing 0.1% (v/v) DMSO and: Pd^0-resins (1 mg/mL, negative control); 0.003-0.3 μM of pPOBC-Gem (negative control); 0.003-0.3 μM of Gemcitabine (positive control); and Pd^0-resin (1 mg/mL)+pPOBC-Gem (BOOM reaction assay). Cells incubated in 0.1% (v/v) DMSO in media were used as untreated cell control.
as §8, with “assay). Cells incubated in 0.1% (v/v) DMSO in media was used as an untreated cell reference standard (100% viability).” for “assay).”
as §9

MiaPaCa2 cells [6] = experiment: Prodrug safety dose-response cell viability (PrestoBlue), MiaPaCa2; assay type: cell-based, human; conditions: Homo sapiens, MIA PaCa-2, 120 h, 5 days, no catalyst
Protocol: as §6, §7

`O=C(CCCCCCC(=O)Nc1ccccc1)NOCc1ccccc1` [Benzyl-Vor, Benzyl-Vorinostat] was tested, and the “toxigenic effect of prodrug + Pd0 resins” value (A549 cells [1]) was “only low levels of toxicity”, the pEC50 (U87G cells; Homo sapiens, 120 h) was under 3.30 and the pEC50 (T98 cells [2]) was under 3.30. For the same compound, the pEC50 (A549 cells [3]) was under 3.30.
For `COc1cccc2c1C(=O)c1c(O)c3c(c(O)c1C2=O)C[C@@](O)(C(=O)CO)C[C@@H]3OC1C[C@H](NC(=O)OCc2ccccc2)[C@H](O)[C@H](C)O1` (stereo partly shown) [Cbz-Dox, Carboxybenzyl Doxorubicin], the “toxigenic effect of prodrug + Pd0 resins” value (A549 cells [1]) was “only low levels of toxicity”, the “toxigenic effect of prodrug + Pd0 resins” value (T98 cells [4]) was “only low levels of toxicity” and the “toxigenic effect of prodrug + Pd0 resins” value (DU145 cells) was “only low levels of toxicity”.
In the case of `O=C(Nc1ccn(C2OC(CO)C(O)C2(F)F)c(=O)n1)OCc1ccccc1` (stereo not shown) [Cbz-Gem, reference compound], the “toxigenic effect of prodrug + Pd0 resins” value (MiaPaCa2 cells [5]) was “only low levels of toxicity”.
In the case of `COc1cc([C@@H]2c3cc4c(cc3[C@@H](O[C@@H]3O[C@@H]5CO[C@@H](C)O[C@H]5[C@H](O)[C@H]3O)[C@H]3COC(=O)[C@H]23)OCO4)cc(OC)c1O` [Etoposide, reference compound], the pEC50 (U87G cells; Homo sapiens, 120 h) was 5.30.
`Nc1ccn([C@@H]2O[C@H](CO)[C@@H](O)C2(F)F)c(=O)n1` [Gemcitabine, reference compound] gave a pEC50 (MiaPaCa2 cells [6]) of 7.89.
In the case of `C#CCOc1ccc(CONC(=O)/C=C/c2ccc(CNCCc3c(C)[nH]c4ccccc34)cc2)cc1` [POB-Panob, Propargyloxybenzyl-Panobinostat], the “toxigenic effect of prodrug + Pd0 resins” value (A549 cells [1]) was “strong toxigenic effect” and the pEC50 (A549 cells [3]) was 6.12.
With `Cc1[nH]c2ccccc2c1CCNCc1ccc(/C=C/C(=O)NO)cc1` [Panobinostat, reference compound] the pEC50 (A549 cells [3]) was 7.80.
Work on `CCc1c2c(nc3ccc(O)cc13)-c1cc3c(c(=O)n1C2)COC(=O)[C@]3(O)CC` [SN-38, 10-Hydroxy-7-ethylcamptothecin, reference compound] yielded a pEC50 (U87G cells) of 7.61.
`O=C(CCCCCCC(=O)Nc1ccccc1)NO` [Vorinostat, reference compound] gave a pEC50 (T98 cells [2]) of 4.91 and a pEC50 (A549 cells [3]) of 5.31.
For `C#CCOc1ccccc1COC(=O)N[C@H]1CC(O[C@H]2C[C@](O)(C(=O)CO)Cc3c(O)c4c(c(O)c32)C(=O)c2c(OC)cccc2C4=O)O[C@@H](C)[C@H]1O` (stereo partly shown) [oPOBC-Dox, 2-proparglyoxybenzylcarbamoyl Doxorubicin], the “toxigenic effect of prodrug + Pd0 resins” value (A549 cells [1]) was “strong toxigenic effect”, the “toxigenic effect of prodrug + Pd0 resins” value (T98 cells [4]) was “strong toxigenic effect” and the “toxigenic effect of prodrug + Pd0 resins” value (DU145 cells) was “strong toxigenic effect”.
For `C#CCOc1ccc(COC(=O)N[C@H]2CC(O[C@H]3C[C@](O)(C(=O)CO)Cc4c(O)c5c(c(O)c43)C(=O)c3c(OC)cccc3C5=O)O[C@@H](C)[C@H]2O)cc1` (stereo partly shown) [pPOBC-Dox, 4-proparglyoxybenzylcarbamoyl Doxorubicin], the “toxigenic effect of prodrug + Pd0 resins” value (A549 cells [1]) was “strong toxigenic effect”, the “toxigenic effect of prodrug + Pd0 resins” value (T98 cells [4]) was “strong toxigenic effect” and the “toxigenic effect of prodrug + Pd0 resins” value (DU145 cells) was “strong toxigenic effect”.

Source: patent US20200289554A1, “BIOORTHOGONAL COMPOUNDS COMPRISING A PROPARGYL GROUP FOR TREATING CANCER” (THE UNIVERSITY COURT OF THE UNIVERSITY OF EDINBURGH, priority 2016, published 2020)
